“And” between values parts separate entries of the source, which are not always exact repeats. Identical values can stand only once. “Also recorded” adds a separate entry of the source. Values belong to the molecule of their own block, whether it stands above or below them. Square brackets hold non-standard residues; d marks the D form. Peptide text beside a SMILES is read from it. ξ: configuration not given here. Aoe(9ξ) = N[C@@H](CCCCCC(=O)C1CO1)C(=O)O; dPip = O=C(O)[C@H]1CCCCN1
How the values were obtained:
[1] = Mouse liver microsome stability test; type: in vitro ADME; details: 1 mg/mL hepatic microsomes
Description: Mouse liver microsome (MLM) half-life measurements were performed by Scripps Florida Pharmacology Core, according to their protocols [Lamberto et al 2017]. 1 mg/mL hepatic microsomes was used to test compounds.
To assess whether E6R may be suitable for testing the effect of HDAC inhibition via new mechanisms in mouse, the half-life […] and intrinsic clearance (Clint) of this compound was first measured using a standard microsomal metabolic assay where sunitinib was used as a control [Lamberto et al 2017]. In this setting, compound degradation is induced by concentrated microsomes isolated from mouse liver. In particular, these hepatic extracts contain the cytochrome P450 system that is primarily responsible for first pass metabolism in vivo.

[2] = tested on: Rpd3-regulated genes (URS-URA3, INO1, IME2, CAR1, SPO13, TRK2); assay: RT-qPCR of Rpd3-regulated genes in yeast; type: cell-based, S. cerevisiae
Description: After yeast cells reached OD600 nm ˜0.5 in 0.8-1 mL of YPD, they were grown for two more hours at room temperature before being centrifuged to remove supernatant and freezing pellets on dry ice. For compound treatments, yeast cells at OD600 nm˜0.5 in YPD were incubated at room temperature for two hours with DMSO (1-1.6%) or the desired compound (from 25 mM stock in 100% DMSO) in an 2 mL-tube for a final volume of 0.8 mL in YPD, before being centrifuged, washed and frozen as described above. Yeast cells were then harvested for RNA extraction using a RiboPure RNA Purification Kit (Invitrogen, cat #AM1926), which involves mechanical cell wall disruption, phenol extraction of the lysate, and RNA purification using glass fiber, and filter-based RNA purification columns. RNA concentration was measured for individually purified RNA samples using a NanoDrop spectrophotometer. A total of 1 μg RNA from each sample was used for reverse transcription following a published procedure [Choi, S. G. et al 2012].
(§1) The RT-qPCR protocol used in this study was described elsewhere [Choi et al 2012]. Culture, RNA extraction, and compound treatments for neuroblastoma SK-N-BE(2)-C cells are described below. Approximately 1 μg RNA per sample was used for reverse transcription. Using a thermocycler, RNA was denatured in the presence of 0.2 μg 18 mer oligo-dT by heating the plate at 65° C. for 10 min. The plate was then immediately cooled down on ice to anneal oligo-dT on the poly-A tail of mRNA. A master mix of AffinityScript Multiple Temperature Reverses Transcriptase (Agilent, cat #600107) was prepared following the manufacturer's protocol, and mixed with RNA samples previously annealed with the oligo-dT. The plate was incubated at 42° C. for 2 h to generate cDNAs from mRNA templates. The reverse transcriptase was then denatured by heating the plate at 70° C. for 15 min. The resulting cDNA was diluted (1:20) in sterile, ultra pure water (ddH2O), and stored at −20° C. until used for qPCR. To measure gene expression, the diluted cDNA was mixed with 5 μL PowerUp SYBR Green master mix (Applied Biosystems, cat #A25743), and the mix of primers (forward+reverse, see FIG. 31; 0.3 μM final concentration) for a total volume of 10 μL. Two technical replicates were generated per cDNA sample in the 384-well PCR plate (Applied Biosystems, cat #4343370). The plate was tightly sealed with optical adhesive film (Applied Biosystems, cat #4311971). Quantitative PCR was conducted with a QuantStudio real-time PCR system from Applied Biosystems, with the following settings: 50° C./2 min, 95° C./10 min, 96° C./15 s/40 cycles, and 60° C./30 s. Dissociation curves were checked for each PCR product, to assess the specificity of the PCR amplicons.
Expression of gene X normalized to the control gene expression=k*1.96^(Ct^Control^−Ct^Test^) • where k is an arbitrary multiplier (k=1000 in this study), 1.96 is the PCR amplification efficiency constant, Ct is the cycle threshold, CtControl is the Ct value for the housekeeping gene used as control (UBC6 in yeast [Teste et al 2009]; RPS11 in human cells [Zhan et al 2014], and CtTest is the Ct value for the tested gene. Replicates corresponding to DMSO treatments or WT yeast cells were averaged and other data points normalized using those DMSO or WT values as references (i.e. expression relative to DMSO or WT). TAF10 in yeast or SNRPD3 in human cells were used as genes not known for being regulated by an HDAC complex (HDAC-unrelated genes).

[3] = tested on: Rpd3-sensitive acid phosphatase activity; assay: Yeast acid phosphatase plate assay; type: cell-based, S. cerevisiae; details: phosphate-rich (high Pi) medium
Description: The acid phosphatase plate assay was implemented as previously described [To et al 1973, Loewith et al 2001], with minor modifications. Cells were grown on high Pi medium (see above) for 2 days, at 30° C. A staining solution containing 2 mg/mL of 1-naphtyl phosphate (Sigma, N5602) and 4 mg/mL fast blue B salt (Sigma, D9805) was then prepared in 50 mM sodium acetate buffer pH 4.0±0.1, and maintained at 50° C. for ˜30 min before being filtered. Meanwhile, a solution of 10 mg/mL (1% weight/volume) ultra pure low melting point (LMP) agarose (Invitrogen, 15517-022) was prepared in 50 mM sodium acetate buffer pH 4.0±0.1, by microwaving the suspension until complete dissolution of the powder. The volume of the agarose solution was checked and readjusted with 50 mM sodium acetate buffer pH 4.0±0.1. The agarose solution was then mixed with the filtered staining solution by vortexing briefly, and the resulting suspension was kept at 50° C. for ˜15 min. The solid agar plate on which cells grew for 2 days were then gently overlaid with the agarose-containing staining solution, allowing its gelification on top of the cells. A red coloring started to appear ˜2 min after covering cells with the solution.

[4] = tested on: cycloheximide (CYH) sensitivity; assay: Yeast cycloheximide sensitivity at 37° C.; type: cell-based, S. cerevisiae
Description: For assessment of cycloheximide (CYH) sensitivity at 37° C., yeast cells with the cyh2^R genotype (FIG. 29) were first transformed with an empty pDEST-AD-TRP1-CYH2 plasmid (FIG. 30) before running the different experiments. Selection of the plasmid was maintained by culturing cells in SC-W medium.

[5] = tested on: HDAC class I and II enzymes (live yeast cells, HeLa nuclear extract, semi-purified human HDAC1); assay: HDAC-Glo I/II luminescence HDAC enzymatic assay; type: biochemical, S. cerevisiae; human; details: three HDAC sources
Description: The HDAC-Glo I/II screening system (Promega, cat #G6430) was adapted to measure the effect of compounds on the enzymatic activity of human and yeast HDAC sources. […] FLAG-HDAC1 was eluted from anti-FLAG beads before running the assay, using a FLAG peptide. Nuclear extracts from human HeLa cells were provided in the assay kit. HDAC enzymatic activity was measured following the manufacturer's protocol. Briefly, linear ranges of the assay were determined by measuring luminescence signals, in a serial dilution manner, for semi-purified human HDAC1, or live yeast cells, diluted in the HDAC-Glo I/II buffer. For HeLa nuclear extracts, the manufacturer provided this information in the assay kit. For the different HDAC sources, dilution factors corresponding to signals in the linear ranges were used. To test the effect of compounds (three or four replicates) on HDAC enzymatic activity, equal volumes of HDAC sources (5 μL), and inhibitors (5 μL) were added to the different wells of a white, flat bottom 384-well plate. The plate was then briefly centrifuged with a tabletop centrifuge, and gently shaken for 1 min at 700 rpm. The plate was tightly sealed to prevent evaporation, and incubated at room temperature for 1 h. […] Luminescence signals were measured using a TriStar luminometer from Berthold Technologies, with 1 s integration time per sample. […]

[6] = tested on: CDKN1A, SOCS3, EGR1 in SK-N-BE(2)-C cells; assay: RT-qPCR of SIN3 HDAC complex-regulated genes in neuroblastoma cells; type: cell-based, human; details: 100 μM for 16 h
Description: as §1
SK-N-BE(2)-C cells were maintained in cell culture flasks supplemented with 10% Fetal bovine serum (FBS) and penicillin/streptomycin (PS) in Dulbecco's Modified Eagle's Medium (DMEM). The cells were maintained at a log phase in a humidified 5% CO2 incubator at 37° C. For testing the effect of the compounds on gene expression, approximately 0.1 million cells were seeded on each well of 24-well cell culture plates, with 1 mL 10% FBS+PS+DMEM. 24 h after seeding the cells, they were exposed to the compounds or DMSO control for 16 h in a humidified 5% CO2 incubator at 37° C., before harvesting them.
Cells were harvested for RNA extraction using Nucleospin 96 RNA (Macherey-Nagel, cat #740709.4) following manufacturer's protocol. Briefly, supernatant was removed, and the cells were gently washed with 1× phosphate-buffered saline. 300 μL lysis buffer were added to each well of 24 well cell culture plates. Roughly 0.1 million cells were used for harvesting each RNA sample. RNA concentration was measured for all purified RNA samples using a nanodrop spectrophotometer.

[7] = tested on: human neuroblastoma SK-N-BE(2)-C xenograft; assay: Neuroblastoma xenograft efficacy study; type: in vivo; details: E6R 50 mg/kg, SAHA 20 mg/kg
Description: Xenografts studies were performed at the TRACE PDX platform of the Leuven Cancer Institute (LKI) at KU Leuven-UZ Leuven. Treatment experiments included 24 NMRI-Foxlnu nude mice (Taconic) implanted with human neuroblastoma cell line SK-N-BE(2)-C(2 million cells/implant/mouse). Cells, tested for a full panel of murine pathogens (Impact profile I, IDEXX) prior to engraftment, were resuspended in 50% matrigel solution in PBS for injection in the mouse right flank. When tumors reached a volume of approximately 200 mm^3, mice were randomly assigned to vehicle (34% DMSO, 55% saline 0.9%, 5% ethanol, 5% kolliphor, 1% NaOH 1 M), E6R (50 mg/kg), or SAHA (20 mg/kg) treatment groups. Treatments were administered daily intraperitoneally for 10 days or until reaching human endpoint (i.e. tumor volume >1,500 mm^3). Tumors were measured daily with digital calipers, and volume was estimated as V=L×W×H×(π/6) (L: length; W: width; H: height). […] All data were analyzed using GraphPad Prism 8. Comparisons between the vehicle and treated groups were tested for statistical significance using […].

[8] = tested on: DOI-induced head-twitch response (HTR); details: literature reports; cited from earlier work
[9] = biological target: Sin3 PAH2/Ume6 SID interaction (Saccharomyces cerevisiae, UniProt P22579); assay: biochemical
Sequence of Sin3 PAH2/Ume6 SID interaction (P22579 402-473): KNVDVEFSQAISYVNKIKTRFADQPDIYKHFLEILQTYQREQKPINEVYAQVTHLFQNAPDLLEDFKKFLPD
Description: IC50 determination for unlabeled Ume6 SID, E6, E6R and E6S: the concentrations of FITC-Ume6 SID (30 nM), and GST-Sin3 PAH2 (3 μM) were fixed and the compounds were titrated with an HP D300 (Hewlett-Packard, CA) to the assay plate. The assayed concentrations are given here as μM concentrations: 6, 6.6, 8.6, 11.2, 14.7, 19.3, 25.3, 33.1, 43.4, 56.9, 74.5, 97.7, 128, 167.7, 219.7, 287.9, 377.2, 494.2, 647.5 and 848.3.
Using a fluorescence polarization (FP) assay, the interaction between the two minimal domains of Sin3 and Ume6 reported in the literature was measured [Washburn & Esposito 2001, Le Guezennec et al 2006]: the paired amphipathic helix 2 (PAH2; residues 402-473) and the Sin3-interacting domain (SID; residues 516-531), respectively (FIG. 6A). In this FP setting, Sin3 PAH2 is N-terminally fused to a glutathione S-transferase (GST) tag while Ume6 SID is labeled with a fluorescein isothiocyanate (FITC) probe at the N-terminal position. […] The binding affinity of this interaction was evaluated at 0.9 μM, as reflected by the calculated equilibrium dissociation constant, KD.
To examine inhibition of the Sin3-Ume6 interaction by E6 outside of potential interference from other cellular components, an in vitro fluorescence polarization (FP) assay was used.

[10] = biological target: Sc Sin3 PAH2-Ume6 SID (TAMRA-labeled) interaction (Saccharomyces cerevisiae, UniProt P22579); assay: biochemical
Sequence of Sc Sin3 PAH2-Ume6 SID (TAMRA-labeled) interaction (P22579 402-473): as above
Description: Symbols represent individual data points (A) or means with SEM, and lines fitted curves.
IC50 determination for unlabeled Ume6 SID, E6, E6R and E6S: the concentrations of FITC-Ume6 SID (30 nM), and GST-Sin3 PAH2 (3 μM) were fixed and the compounds were titrated with an HP D300 (Hewlett-Packard, CA) to the assay plate.

half-life in mouse liver microsomes [1]: ~10 min
Compound: CCN(CC)CCNC(=O)c1c(C)[nH]c(/C=C2\C(=O)Nc3ccc(F)cc32)c1C [sunitinib, reference compound]

Compound: O=C(CCCCC[C@@H]1NC(=O)[C@H]2CCCCN2C(=O)[C@H](Cc2ccccc2)NC(=O)[C@H](Cc2ccccc2)NC1=O)C1CO1 (stereo partly shown) [TRX, trapoxin A] (cyclo(FF[dPip][Aoe(9ξ)]))
effect on CAR1 and SPO13 expression ([2]; 250 μM): consistently derepressed
effect on all Rpd3-regulated loci ([2]; FIG. 3I): activated all Rpd3-regulated loci
Rpd3-sensitive acid phosphatase activity [3]: induced
CYH sensitivity [4]: induced
inhibition of HDAC enzymatic activity [5]: systematically reduced HDAC activity
effect on expression of CDKN1A, SOCS3 and EGR1 [6]: derepressed

Compound: O=C(CCCCCCC(=O)Nc1ccccc1)NO [SAHA, suberoylanilide hydroxamic acid, reference compound]
effect on expression of CDKN1A, SOCS3 and EGR1 [6]: derepressed
tolerability and body weight of xenografted mice ([7]; daily): did not affect mice weight; also recorded: well-tolerated
growth of neuroblastoma tumors compared to vehicle ([7]; daily intraperitoneally 10 days): significantly reduced the growth
head-twitch behavior after chronic treatment [8]: reduced DOI-induced head-twitch behavior in WT, but not in HDAC2 cKO mice; also recorded: reduces head-twitch response (HTR) behavior

Compound: C[C@H](NC(=O)c1c(O)n2ccccc2nc1=O)c1ccccc1 [E6S]
effect on expression of CDKN1A, SOCS3 and EGR1 [6]: only perturbed expression of two of the tested downstream genes
IC50 [9]: 155 µM and 174 µM
Ki ([9]; inhibitory concentration (Ki), from Example 6 IC50, assuming competitive inhibition): ~30 µM
Ki ([9]; inhibitory concentrations (Ki), from Example 6A IC50, assumption of competitive inhibition): 38.5 µM
IC50 [10]: 597 µM
